Test results reported in patent publication US20130071927A1, “MEDIA AND METHODS FOR CELL CULTURE” (Sydney IVF Limited, priority 2010, published 2013).

Experiments:
Format in all cases: cell-based, human
[1] = tested on: hESC; experiment: Expansion of single-cell dissociated hESC on feeder cells using protectants in the culture medium
Procedure: Organ culture dishes with various hESC lines (Table 1) were washed once with 1 ml PBS and then dislodged by adding ˜0.2 ml 0.05% trypsin/5 mM EDTA and incubating at 37° C. for 10 mins. After the incubation 1 ml DMEM medium containing 10% FBS was added to inhibit the trypsin, and a single cell suspension was obtained by vigorous pipetting. The cells were counted, pelleted by centrifugation at 250×g for 4 min and resuspended in 5 ml KSR medium containing 20 ng/ml bFGF and 20 μM OPH109, a potent, cell permeable inhibitor of several caspases. The cell suspension was then transferred to a T25 culture flask containing fresh, mitomycin C treated human embryonic fibroblast feeder layer cells and incubated at 37° C., 5% CO2 and 5% O2. The medium was changed after 2 days (and every 2 days thereafter) using KSR medium plus 4 ng/ml bFGF. […] Over the course of 8-10 days these colonies continued growing in size. In contrast, control cultures set up in the same way but without OPH109 in the initial culture medium only contained very few hESC colonies, in concordance with the reported poor viability of hESC after single cell dissociation.
After 8-10 days the cells were harvested by preparing a single cell suspension using trypsin/EDTA as described above. Table 3 list the numbers of cells obtained for various cell lines, indicating a 10-15 fold expansion in a single step. The cells could be used for subsequent experiments or further expansion by plating 10,000 cells/cm^2 into culture vessels with fresh feeder layer cells using KSR medium plus 20 ng/ml bFGF and 20 μM OPH109 as the initial culture medium.
In another experiment, single cell suspensions were prepared from hESC cells grown in organ culture dishes using trypsin/EDTA as described above. Cell were then resuspended in 5 ml KSR medium containing 20 ng/ml bFGF and 2.5 μM blebbistatin, a potent, cell permeable inhibitor of myosin II. The cell suspension was then transferred to a T25 culture flask containing fresh, mitomycin C treated human embryonic fibroblast feeder layer cells and incubated at 37° C., 5% CO2 and 5% O2. The medium was changed after 2 days (and every 2 days thereafter) using KSR medium plus 4 ng/ml bFGF. […] Colonies continued to grow in size and density over 8-10 days until the cultures were passaged again for cell counting (summarised in Table 4) and replating of 2,000-10,000 cells/cm^2 into culture vessels with fresh feeder layer cells using KSR medium plus 20 ng/ml bFGF and 2.5 μM blebbistatin as the initial culture medium. Using this method cells were expanded for >10 passages, while maintaining their pluripotency and normal karyotypes.

[2] = tested on: SIVF019 hESC; experiment: Feeder free expansion of hESC using monolayer culture; conditions: SIVF019 (collagenase passaged stock), within 9 days, 3 passages, 10 μM Y-27632 at plating, collagen I
Procedure: Manually passaged and collagenase passaged hESC lines (Table 1) grown on feeder cells were dissociated into single cells using 0.05% trypsin/5 mM EDTA as described in Example 5. Cells were plated into a collagen I coated plates at ˜2×10^4/cm^2 in Conditioned KSR medium with 20 ng/ml bFGF and 10 μM Y-27632, and incubated at 37° C./5% CO2/5% O2 (passage 1). The medium was changed the following day, then every 2nd day until cells reached ˜80% confluency. Cells were then dissociated into single cells using the 0.05% trypsin/5 mM EDTA protocol, with the exception of incubation with 0.05% trypsin/5 mM EDTA for 3 mins only, counted and plated at ˜2×10^4/cm^2 in the above described medium (passage 2). This process was repeated when cells reached confluency (passage 3). At each of the 3 passages, some of the dissociated cells were plated into 96 well plates for pluripotency assessment as described in Example 6. Within 9 days, the theoretical cell number obtained for SIVF019 (collagenase passaged stock) was 24 fold that originally plated (FIG. 6A). Manually passaged hESC SIVF002, SIVF006 and SIVF021 could also be successfully expanded as a monolayer (FIG. 6B).

[3] = tested on: hESC; experiment: Expansion of single-cell dissociated hESC on feeder cells using protectants in the culture medium; conditions: Y27632 as protectant in the culture medium, on feeders
[4] = tested on: hESC; experiment: Feeder layer-free monolayer hESC culture on collagen I with protectants/modulators; conditions: for doubling time: collagen I coating + Y-27632 (10 μM), SIVF019 (FIG. 4)
Procedure: A single cell suspension was prepared similar to Example 4 by first washing a T25 flask with 5 ml PBS followed by trypsinising the cells with 2 ml 0.05% trypsin/5 mM EDTA, incubating at 37° C. for 10 mins and resuspending in 10 ml DMEM medium containing 10% FBS with vigorous pipetting. Cell number and viability was determined using the NucleoCounter and an appropriate number of cells centrifuged at 250×g for 4 mins prior to resuspension in conditioned KSR medium with 20 ng/ml bFGF plus additives. Conditioned KSR medium was produced by incubation of KSR medium on mitomycin-C treated human foetal fibroblasts for 48 hrs prior to harvest and storage at −20° C. As protectants/modulators the following additives were tested: • 1. 10 μM Y-27632 • 2. 20 μM OPH109 • 3. 2.5-10 μM blebbistatin • 4. 20 μM OPH109+2.5-10 μM blebbistatin
Cells were plated in collagen I (Cell Science and Technologies) coated 96 well optical bottom plates (BD) at a density of 2×10^4 cells/cm^2, and incubated at 37° C./5% CO2/5% O2. Media were changed on every 2nd day thereafter. […] This toxic effect could in turn be counteracted by using OPH109 in addition to blebbistatin. After 4-5 days in culture cells were fixed and immunofluorescence stained for the pluripotency markers Oct-3/4, SSEA-4 and Tra-1-81 as well as the early differentiation marker CD29. The cells were imaged and analysed using an IN Cell Analyzer 1000 and IN Cell Developer Toolbox 1.7 software. FIG. 3 summarises the results for 2 cell lines, indicating the ability of protectants/modulators to facilitate feeder-free monolayer culture of undifferentiated hESC. Next, the growth rate of monolayer hESC was assessed by imagining of Hoechst (Invitrogen) stained wells using the IN Cell Analyzer 1000 in 24 hr intervals. Cell number was determined by analysis using IN Cell Developer Toolbox 1.7 and IN Cell Analyzer 1000 Workstation 3.5 software. […] There was no significant difference in cell number or proliferation between uncoated and collagen I coated growth surfaces.

For C[C@@H](N)[C@H]1CC[C@H](C(=O)Nc2ccncc2)CC1 [Y-27632], the “cell viability after dissociation into single cell suspensions” value ([1]; Y27632 as protectant in the culture medium, on feeders) was “dramatically increased cell viability”, the “theoretical cell number relative to that originally plated” value [2] was 24 fold and the “morphology of the colonies” value [3] was “flat monolayers of small cells with high nuclear to cytoplasmic ratios”. It also gave a doubling time ([4]; between 24 hrs and 48 hrs post-plating) of 11 h and a doubling time ([4]; between 48 hrs and 72 hrs post-plating) of 17 h.
CC(C)[C@H](NC(=O)c1ccc2ccccc2n1)C(=O)N[C@@H](CC(=O)O)C(=O)COc1c(F)cccc1F [OPH109, Quinoline-Val-Asp-Difluorophenoxymethylketone] was tested, and the “number of passages cell lines were maintained (typical morphology, pluripotency markers, stable karyotype kept)” value ([1]; 20 μM OPH109 in initial culture medium, 10,000 cells/cm^2) was greater than 10 passages, the expansion per passage ([1]; 20 μM OPH109 in initial culture medium, >10 passages) was 10-15 fold and the “random images (10x objective) in which colonies were observed” value ([1]; 20 μM OPH109 in initial culture medium, control without OPH109 1 out of 10) was 6 out of the 10. For the same compound, the “Viable cells after 1 expansion step” value ([1]; SIVF006, 20 μM OPH109, from 1.23 × 10^5 cells in organ culture dish to T25 flask, 8-10 days) was 1.97 × 10^6 cells, the “Viable cells after 1 expansion step” value ([1]; SIVF019, 20 μM OPH109, starting cells not determined, T25 flask, 8-10 days) was 3.1 × 10^6 cells and the “Viable cells after 1 expansion step” value ([1]; SIVF021, 20 μM OPH109, from 2.19 × 10^5 cells in organ culture dish to T25 flask, 8-10 days) was 3.00 × 10^6 cells. The “Viable cells after 1 expansion step” value ([1]; SIVF022, 20 μM OPH109, from 3.99 × 10^5 cells in organ culture dish to T25 flask, 8-10 days) was 4.40 × 10^6 cells, the “expansion in a single step” value ([1]; various cell lines, 20 μM OPH109, 8-10 days) was 10-15 fold and the “cell morphology in feeder-free culture” value ([4]; 20 μM OPH109 by itself, collagen I coated 96 well plates) was “changed to larger cytoplasm/nuclear ratios indicating cell differentiation”.
Cc1ccc2c(c1)C(=O)C1(O)CCN(c3ccccc3)C1=N2 (stereo not drawn) [blebbistatin] was tested, and the “number of passages cells were expanded (pluripotency and normal karyotypes maintained)” value ([1]; 2.5 μM blebbistatin in initial culture medium, 2,000-10,000 cells/cm^2) was greater than 10 passages, the “Viable cells after 1 expansion step” value ([1]; SIVF002, 2.5 μM blebbistatin, from 5.7 × 10^4 cells in organ culture dish to T25 flask) was 1.5 × 10^6 cells and the “Viable cells after 1 expansion step” value ([1]; SIVF019 Exp 1, 2.5 μM blebbistatin, from 6.6 × 10^4 cells in organ culture dish) was 3.4 × 10^6 cells. The “Viable cells after 1 expansion step” value ([1]; SIVF019 Exp 2, 2.5 μM blebbistatin, from 2.5 × 10^5 cells in organ culture dish) was 2.4 × 10^6 cells, the “Viable cells after 1 expansion step” value ([1]; SIVF019 Exp 3, 2.5 μM blebbistatin, from 2.5 × 10^5 cells in organ culture dish) was 3.4 × 10^6 cells and the “Viable cells after 1 expansion step” value ([1]; SIVF024, 2.5 μM blebbistatin, from 2.6 × 10^5 cells in organ culture dish) was 1.6 × 10^6 cells. The “Viable cells after 1 expansion step” value ([1]; SIVF048, 2.5 μM blebbistatin, from 2.3 × 10^5 cells in organ culture dish) was 2.0 × 10^6 cells, the “protectant strength compared with OPH109” value ([1]; allows lower initial plating densities and greater expansion) was “more powerful protectant than OPH109” and the toxicity ([4]; blebbistatin 2.5-10 μM, feeder-free on collagen I) was “increased toxicity at higher concentrations”. For the same compound, the “concentration at which most potent as protectant/modulator” value ([4]; tested 2.5-10 μM, feeder-free on collagen I) was 2.5 µM.
